# Several values for one entry are separate records, joined by “and”; a condition that tells them apart may be missing. Equal entries are not always repeated.
# What was measured:
# [1] = tested on: subjects with insomnia disorder; assay: Phase 1 crossover polysomnography (PSG) study in subjects with insomnia disorder; type: in vivo, human
# [2] = Aqueous solubility at pH about 6.8; type: physicochemical; conditions: 25 °C, pH 6.8, aqueous buffer, kinetic from dmso stock, single value, procedure not stated; read-out: Solubility at pH 6.8
# [3] = Change from Baseline, 10 mg oral
# [4] = Compound (1D) versus placebo, 10 mg oral
# [5] = Treatment Period 1 Night 1, 10 mg oral
# [6] = Treatment Period 1 Night 2, 10 mg oral
# [7] = Treatment Period 2 Night 1, 10 mg oral
# [8] = Treatment Period 2 Night 2, 10 mg oral
# [9] = Treatment Period Mean, 10 mg oral
structure (smiles),measurement,setting,value
O=C(O)c1nc2ccccc2n([C@H]2C[C@H]3CCC[C@@H](C2)N3C2CC3CCCC(C3)C2)c1=O (stereo partly drawn) [Compound (1D)],Latency to Persistent Sleep (LPS) LSM (STDE),[1]; [3],−32.33 (4.580) Minutes
same,Latency to Persistent Sleep (LPS) Maximum,[1]; [3],8.75 min
same,Latency to Persistent Sleep (LPS) Mean (SD),[1]; [3],−29.918 (23.3435) Minutes
same,Latency to Persistent Sleep (LPS) Median,[1]; [3],-27.250 min
same,Latency to Persistent Sleep (LPS) Minimum,[1]; [3],-87.75 min
same,Total Sleep Time (TST) LSM (STDE),[1]; [3],69.44 (12.870) Minutes
same,Total Sleep Time (TST) Maximum,[1]; [3],198.00 min
same,Total Sleep Time (TST) Mean (SD),[1]; [3],69.955 (49.2950) Minutes
same,Total Sleep Time (TST) Median,[1]; [3],73.750 min
same,Total Sleep Time (TST) Minimum,[1]; [3],-59.80 min
same,Wake After Sleep Onset (WASO) LSM (STDE),[1]; [3],−50.04 (5.990) Minutes
same,Wake After Sleep Onset (WASO) Maximum,[1]; [3],29.50 min
same,Wake After Sleep Onset (WASO) Mean (SD),[1]; [3],−50.545 (42.1544) Minutes
same,Wake After Sleep Onset (WASO) Median,[1]; [3],-47.250 min
same,Wake After Sleep Onset (WASO) Minimum,[1]; [3],-185.50 min
same,Latency to Persistent Sleep (LPS) Drug Effect Difference (LSM (STDE)),[1]; [4],−17.44 (6.292) Minutes
same,Total Sleep Time (TST) Drug Effect Difference (LSM (STDE)),[1]; [4],56.69 (17.665) Minutes
same,Wake After Sleep Onset (WASO) Drug Effect Difference (LSM (STDE)),[1]; [4],−38.46 (8.222) Minutes
same,Latency to Persistent Sleep LSM Change from Baseline (STDE),"[1]; Table 4 summary, 10 mg oral",−32.3 (4.6) min.
same,Latency to Persistent Sleep Treatment Period Mean (SD),"[1]; Table 4 summary, 10 mg oral",18.8 (15.6)) min.
same,Latency to Persistent Sleep LSM Effect Difference (STDE),"[1]; Table 4 summary, versus placebo, 10 mg oral",−17.4 (6.3) min.
same,Wake After Sleep Onset LSM Change from Baseline (STDE),"[1]; Table 6 summary, 10 mg oral",−50.0 (6.0) min.
same,Wake After Sleep Onset Treatment Period Mean (SD),"[1]; Table 6 summary, 10 mg oral",26.1 (16.2) min.
same,Wake After Sleep Onset LSM Effect Difference (STDE),"[1]; Table 6 summary, versus placebo, 10 mg oral",−38.5 (8.2) min.
same,Total Sleep Time LSM Change from Baseline (STDE),"[1]; Table 8 summary, 10 mg oral",69.4 (12.9) min.
same,Total Sleep Time Treatment Period Mean (SD),"[1]; Table 8 summary, 10 mg oral",432.0 (35.1) min.
same,Total Sleep Time LSM Effect Difference (STDE),"[1]; Table 8 summary, versus placebo, 10 mg oral",56.7 min. and 56.7 (17.7) min.
same,Latency to Persistent Sleep (LPS) Maximum,[1]; [5],58.0 min
same,Latency to Persistent Sleep (LPS) Mean (SD),[1]; [5],25.68 (15.691) Minutes
same,Latency to Persistent Sleep (LPS) Median,[1]; [5],24.50 min
same,Latency to Persistent Sleep (LPS) Minimum,[1]; [5],6.0 min
same,Total Sleep Time (TST) Maximum,[1]; [5],469.0 min
same,Total Sleep Time (TST) Mean (SD),[1]; [5],424.00 (32.530) Minutes
same,Total Sleep Time (TST) Median,[1]; [5],419.50 min
same,Total Sleep Time (TST) Minimum,[1]; [5],358.5 min
same,Wake After Sleep Onset (WASO) Maximum,[1]; [5],111.5 min
same,Wake After Sleep Onset (WASO) Mean (SD),[1]; [5],35.95 (29.815) Minutes
same,Wake After Sleep Onset (WASO) Median,[1]; [5],29.50 min
same,Wake After Sleep Onset (WASO) Minimum,[1]; [5],7.5 min
same,Latency to Persistent Sleep (LPS) Maximum,[1]; [6],105.0 min
same,Latency to Persistent Sleep (LPS) Mean (SD),[1]; [6],20.73 (29.755) Minutes
same,Latency to Persistent Sleep (LPS) Median,[1]; [6],15.00 min
same,Latency to Persistent Sleep (LPS) Minimum,[1]; [6],0.0 min
same,Total Sleep Time (TST) Maximum,[1]; [6],459.0 min
same,Total Sleep Time (TST) Mean (SD),[1]; [6],439.82 (19.572) Minutes
same,Total Sleep Time (TST) Median,[1]; [6],443.00 min
same,Total Sleep Time (TST) Minimum,[1]; [6],387.5 min
same,Wake After Sleep Onset (WASO) Maximum,[1]; [6],52.0 min
same,Wake After Sleep Onset (WASO) Mean (SD),[1]; [6],25.68 (12.515) Minutes
same,Wake After Sleep Onset (WASO) Median,[1]; [6],25.50 min
same,Wake After Sleep Onset (WASO) Minimum,[1]; [6],4.0 min
same,Latency to Persistent Sleep (LPS) Maximum,[1]; [7],46.0 min
same,Latency to Persistent Sleep (LPS) Mean (SD),[1]; [7],12.75 (14.425) Minutes
same,Latency to Persistent Sleep (LPS) Median,[1]; [7],9.00 min
same,Latency to Persistent Sleep (LPS) Minimum,[1]; [7],0.0 min
same,Total Sleep Time (TST) Maximum,[1]; [7],458.5 min
same,Total Sleep Time (TST) Mean (SD),[1]; [7],416.88 (101.558) Minutes
same,Total Sleep Time (TST) Median,[1]; [7],453.00 min
same,Total Sleep Time (TST) Minimum,[1]; [7],166.0 min
same,Wake After Sleep Onset (WASO) Maximum,[1]; [7],22.5 min
same,Wake After Sleep Onset (WASO) Mean (SD),[1]; [7],15.63 (4.299) Minutes
same,Wake After Sleep Onset (WASO) Median,[1]; [7],15.75 min
same,Wake After Sleep Onset (WASO) Minimum,[1]; [7],9.5 min
same,Latency to Persistent Sleep (LPS) Maximum,[1]; [8],29.5 min
same,Latency to Persistent Sleep (LPS) Mean (SD),[1]; [8],12.50 (9.350) Minutes
same,Latency to Persistent Sleep (LPS) Median,[1]; [8],11.50 min
same,Latency to Persistent Sleep (LPS) Minimum,[1]; [8],0.5 min
same,Total Sleep Time (TST) Maximum,[1]; [8],459.5 min
same,Total Sleep Time (TST) Mean (SD),[1]; [8],447.50 (8.594) Minutes
same,Total Sleep Time (TST) Median,[1]; [8],450.25 min
same,Total Sleep Time (TST) Minimum,[1]; [8],436.0 min
same,Wake After Sleep Onset (WASO) Maximum,[1]; [8],38.5 min
same,Wake After Sleep Onset (WASO) Mean (SD),[1]; [8],23.44 (8.946) Minutes
same,Wake After Sleep Onset (WASO) Median,[1]; [8],22.75 min
same,Wake After Sleep Onset (WASO) Minimum,[1]; [8],12.5 min
same,Latency to Persistent Sleep (LPS) LSM (STDE),[1]; [9],18.14 (4.579) Minutes
same,Latency to Persistent Sleep (LPS) Maximum,[1]; [9],70.25 min
same,Latency to Persistent Sleep (LPS) Mean (SD),[1]; [9],18.750 (15.6310) Minutes
same,Latency to Persistent Sleep (LPS) Median,[1]; [9],15.000 min
same,Latency to Persistent Sleep (LPS) Minimum,[1]; [9],2.00 min
same,Total Sleep Time (TST) LSM (STDE),[1]; [9],431.09 (12.869) Minutes
same,Total Sleep Time (TST) Maximum,[1]; [9],464.00 min
same,Total Sleep Time (TST) Mean (SD),[1]; [9],432.026 (35.1088) Minutes
same,Total Sleep Time (TST) Median,[1]; [9],443.500 min
same,Total Sleep Time (TST) Minimum,[1]; [9],309.00 min
same,Wake After Sleep Onset (WASO) LSM (STDE),[1]; [9],25.28 (5.990) Minutes
same,Wake After Sleep Onset (WASO) Maximum,[1]; [9],51.75 min
same,Wake After Sleep Onset (WASO) Mean (SD),[1]; [9],26.066 (16.2181) Minutes
same,Wake After Sleep Onset (WASO) Median,[1]; [9],22.250 min
same,Wake After Sleep Onset (WASO) Minimum,[1]; [9],11.00 min
same,Latency to Persistent Sleep LSM decrease effect,[1]; treatment group versus placebo,17.4 min
same,Wake After Sleep Onset LSM decrease effect,[1]; treatment group versus placebo,38.5 min
CNC(=O)Cn1c(=O)n(C2CCN([C@@H]3Cc4cccc5cccc3c45)CC2)c2ccccc21 [Compound W-212393],solubility at 16 h,[2],42 µM
